Experimental data reported in paper PMC7541396 (Nature biotechnology, 2020).

Experiments:
[1] = test system: TCR004; type: cell-based, human; details: Supplementary Fig. 4b, n=3
[2] = test system: TCR121; test: Mtb proteome screen and PPE protein stimulation with aAPC, TCR121; type: cell-based, human

Molecule	response of TCR004 to cell-free expressed protein [1]	stimulation of TCR121 by whole PPE protein [2]
CFP10: Mtb protein, cell-free expressed; TCR004 target	only responded to its target antigen CFP10	–
PPE26: Mtb PPE protein, cell-free expressed (protein, UniProt Q79FK6 1-393, looked up) PPE family protein PPE26: MDFGALPPEVNSVRMYAGPGSAPMVAAASAWNGLAAELSSAATGYETVITQLSSEGWLGPASAAMAEAVAPYVAWMSAAAAQAEQAATQARAAAAAFEAAFAATVPPPLIAANRASLMQLISTNVFGQNTSAIAAAEAQYGEMWAQDSAAMYAYAGSSASASAVTPFSTPPQIANPTAQGTQAAAVATAAGTAQSTLTEMITGLPNALQSLTSPLLQSSNGPLSWLWQILFGTPNFPTSISALLTDLQPYASFFYNTEGLPYFSIGMGNNFIQSAKTLGLIGSAAPAAVAAAGDAAKGLPGLGGMLGGGPVAAGLGNAASVGKLSVPPVWSGPLPGSVTPGAAPLPVSTVSAAPEAAPGSLLGGLPLAGAGGAGAGPRYGFRPTVMARPPFAG	–	strong to modest stimulation
